This is an account of results in patent EP0157361A2, “Analysis method and means for detecting esterolytic and or proteolytic enzymes” (MILES INC., priority 1984, dated 1985).

Holding throughout (type): biochemical
The subject of experiment [1] is Leukozyten-Enzyme. Kind of experiment: Acceleration of cleavage of N-Tosyl-L-alanin-5-hydroxy-1,2-benzisothiazolylester by leukocytes (photometric, 325 nm). Conditions: Aktivator 125 µg/Test, Tris-HCl pH 8.4, 100 µl N-Methylpyrrolidon. How it is done:
(§1) Zu 2.25 ml des betreffenden Puffers fügte man je nach Substrat 50 - 250 µl N-Methylpyrrolidon als Lösungsvermittler und ergänzte das Volumen der Lösung mit Puffer auf 2.5 ml. Dann wurden 5 µl einer Lösung von 5 - 100 mg n-Undecanol in 1 ml N-Methylpyrrolidon sowie 5 µl einer Lösung von 2 mg Natriumdodecylsulfat (SDS) bzw. 4 mg der anderen Detergentien in 1 ml Wasser oder N-Methylpyrrolidon zu der Reaktionsmischung zugegeben. Nach gutem Durchmischen wurden 5 µl einer 10-1 molaren Substratlösung in N-Methylpyrrolidon, Dimethylformamid oder Dimethylsulfoxid in die Reaktionslösung gegeben und nach der Zugabe der Leukozytensuspension der Extinktionsanstieg bei der angegebenen Wellenlänge kontinuierlich verfolgt. Die Spontanhydrolyse des Substrats wird in einem Paralellansatz ohne Leukozytenzugabe anhand des Extinktionsanstiegs bestimmt.
(§2) Für die Bestimmung der Umsetzungsgeschwindigkeit wird der in der Enzymreaktion erhaltene Extinktionsanstieg um den für die Spontanhydrolyse ermittelten Betrag vermindert. Absolutwerte für die Substratspaltung (Mol. Min.^-1) können aus den Extinktionsdifferenzen mit Hilfe der molaren Extinktionskoeffizienten errechnet werden.
Beschleunigung der Spaltung von N-Tosyl-L-alanin-5-hydroxy-1,2-benzisothiazolylester mit Leukozyten in 0.1 M Tris-(hydroxymethyl)-aminomethan-Salzsäurepuffer (pH 8.4) in Gegenwart von 100 µl N-Methylpyrrolidon durch Zusätze von Aktivatoren und Detergentien.

The test system of experiment [2] is Leukozyten-Enzyme. Kind of experiment: Acceleration of enzymatic cleavage of N-Tosyl-L-alanin-indoxylester by leukocytes (photometric, 360 nm). Particulars: for rel.Geschwindigk.der Enzymreaktion, bezogen auf Decanol (0,125 µl/Test) = 1: 50 µl N-Methylpyrrolidon, SDS 10 µg/Test, Tris-HCl pH 8.8; for relative Spaltungsgeschwindigkeit: 0.1 M Tris-HCl buffer pH 8.8, 360 nm. As to the method: as §1, §2
Beschleunigende Wirkung von Alkanolen auf die enzymatische Spaltung von N-Tosyl-L-alanin-indoxylester mit Leukozyten in 0.1 M Tris-(hydroxymethyl)-aminomethan-Salzsäure-Puffer pH 8.8 unter Zusatz von SDS bzw. Polylysin mit einem mittleren Molekulargewicht von 14 000 (Messung bei 360 nm).
Konzentrationsabhängigkeit der beschleunigenden Wirkung von n-Undecanol auf die Spaltung von N-Tosyl-L-alanin-indoxylester mit Leukozyten in Gegenwart von 50 µl N-Methylpyrrolidon/Testansatz und 10 µg/Test SDS in 0.1 M Tris-(hydroxymethyl)-aminomethan-Salzsäurepuffer (pH 8.8).

Experiment [3] deals with Leukozyten-Enzyme. As to the kind of experiment: Acceleration of cleavage of N-Tosyl-L-alanin-3-hydroxy-5-phenylpyrrolester by leukocytes (photometric, 330 nm). Conditions: 250 µl N-Methylpyrrolidon. How it is done:
as §1, §2
Beschleunigung der Spaltung von N-Tosyl-L-alanin-3-hydroxy-5-phenylpyrrolester mit Leukozyten in 0.1 M Tris-(hydroxymethyl)-aminomethan-Salzsäurepuffer (pH 8.8) in Gegenwart von 250 µl N-Methylpyrrolidon durch Zusätze von Aktivatoren und Detergentien.
Beschleunigung der Spaltung von N-Tosyl-L-alanin-3-hydroxy-5-phenylpyrrolester mit Leukozyten in diversen 0.1 M. Puffern (pH 8.4) unter Zusatz von 250 µl N-Methylpyrrolidon und Aktivatoren sowie Detergentien.

The subject of experiment [4] is Leukozyten-Enzyme. Kind of experiment: Activation of leukocyte enzymes, general statement in the description. Conditions: statement in words; compared with Hexanol, Heptanol, Octanol, Nonanol, Decanol, Dodecanol, Tridecanol of EP-A 14 929. As to the method:
as §1, §2

Where [5] appears, read: Detergens Poly-L-Lys (mean MW 14 000) 20 µg/Test.
The mark [6] stands for this setting: Aktivator 125 µg/Test, SDS 10 µg/Test, Tris-HCl pH 8.8.
[7] abbreviates: Aktivator 125 µg/Test, Zephirol 20 µg/Test, Tris-HCl pH 8.8.
The mark [8] stands for this setting: Puffer Borat 0.1 M pH 8.4, Aktivator 0.125 µl bzw. 125 µg je Test, SDS 10 µg/Test.
[9] abbreviates: Puffer Borat 0.1 M pH 8.4, Aktivator 0.125 µl bzw. 125 µg je Test, no detergent.
Setting [10] is: Puffer Carbonat-Hydrogencarbonat 0.1 M pH 8.4, Aktivator 0.125 µl bzw. 125 µg je Test, SDS 10 µg/Test.
[11] abbreviates: Puffer Phosphat 0.1 M pH 8.4, Aktivator 0.125 µl bzw. 125 µg je Test, SDS 10 µg/Test.
Where [12] appears, read: Puffer Tris 0.1 M pH 8.4, Aktivator 0.125 µl bzw. 125 µg je Test, BDTA 20 µg/Test.
Where [13] appears, read: Puffer Tris 0.1 M pH 8.4, Aktivator 0.125 µl bzw. 125 µg je Test, Poly-L-Arg (40000) 20 µg/Test.
The mark [14] stands for this setting: Puffer Tris 0.1 M pH 8.4, Aktivator 0.125 µl bzw. 125 µg je Test, SDS 10 µg/Test.
Where [15] appears, read: Puffer Tris 0.1 M pH 8.4, Aktivator 0.125 µl bzw. 125 µg je Test, no detergent.

Entries after “also recorded” stand apart in the source; their conditions may differ.

As to `CCCCCCCCCCCO` [n-Undecanol], the “relative Spaltungsgeschwindigkeit” value in the experiment on Leukozyten-Enzyme [1] (Poly-L-Lys(14000) 20 µg/Test) turned out to be 8.2; with Leukozyten-Enzyme [1] (Poly-L-Orn(30000) 20 µg/Test) it was 7.4; in the experiment with Leukozyten-Enzyme [1] (SDS 10 µg/Test) it was 2.5; with Leukozyten-Enzyme [1] (no detergent), 3.1; in the experiment with Leukozyten-Enzyme [2] (setting [5]), 6.5; in the experiment with Leukozyten-Enzyme [2] (Detergens SDS 10 µg/Test) it was 1.85. Besides, the “relative Spaltungsgeschwindigkeit” value in the experiment on Leukozyten-Enzyme [3] (setting [6]) was 3.3; in the experiment on Leukozyten-Enzyme [3] (setting [7]), 2.6; in the experiment with Leukozyten-Enzyme [3] (setting [8]) it was 15.2; with Leukozyten-Enzyme [3] (setting [9]), 5.6; in the experiment on Leukozyten-Enzyme [3] (setting [10]) it was 6.6; with Leukozyten-Enzyme [3] (setting [11]), 17.3. Further, the “relative Spaltungsgeschwindigkeit” value in the experiment on Leukozyten-Enzyme [3] (setting [12]) is 3.55; in the experiment with Leukozyten-Enzyme [3] (setting [13]), 6.55; in the experiment with Leukozyten-Enzyme [3] (setting [14]) it was 2.1; in the experiment with Leukozyten-Enzyme [3] (setting [15]) it was 1.7. Further, the “rel.Geschwindigk.der Enzymreaktion, bezogen auf Decanol (0,125 µl/Test) = 1” value is reported as 2,1 in the experiment with Leukozyten-Enzyme [2] (0,2 µl Undecanol in test solution); 3,1 in the experiment on Leukozyten-Enzyme [2] (0,5 µl Undecanol in test solution); 3,2 in the experiment with Leukozyten-Enzyme [2] (0,25 µl Undecanol in test solution); 0,65 with Leukozyten-Enzyme [2] (0,025 µl Undecanol in test solution); 1,5 in the experiment with Leukozyten-Enzyme [2] (0,075 µl Undecanol in test solution); 1,75 in the experiment with Leukozyten-Enzyme [2] (0,125 µl Undecanol in test solution). Moreover, in the experiment with Leukozyten-Enzyme [4], the “Aktivierung der Leukozyten-Enzyme” value is on record as “stark aktiviert; also recorded: alle vorgenannten Alkohole in der Aktivierung der Leukozyten- Enzyme übertrifft”.
Regarding `CCCCCCCCCCO` [n-Decanol], the “relative Spaltungsgeschwindigkeit” value with Leukozyten-Enzyme [1] (Poly-L-Lys(14000) 20 µg/Test) is given as 4.25; in the experiment with Leukozyten-Enzyme [1] (Poly-L-Orn(30000) 20 µg/Test) it was 3.8; in the experiment with Leukozyten-Enzyme [1] (SDS 10 µg/Test), 1.0; in the experiment with Leukozyten-Enzyme [1] (no detergent), 1.9; with Leukozyten-Enzyme [2] (setting [5]), 3.2; in the experiment with Leukozyten-Enzyme [2] (Detergens SDS 10 µg/Test), 1. The “relative Spaltungsgeschwindigkeit” value in the experiment with Leukozyten-Enzyme [3] (setting [6]) is on record as 1.0; with Leukozyten-Enzyme [3] (setting [7]) it was 1.27; in the experiment on Leukozyten-Enzyme [3] (Puffer Borat 0.1 M pH 8.4, Aktivator 0.125 µl bzw. 125 µg je Test, Poly-DL-Lys(37000) 20 µg/Test) it was 3.15; in the experiment with Leukozyten-Enzyme [3] (setting [8]), 9.0; with Leukozyten-Enzyme [3] (setting [9]), 4.9; with Leukozyten-Enzyme [3] (setting [10]), 5.6. The “relative Spaltungsgeschwindigkeit” value was 12.0 with Leukozyten-Enzyme [3] (setting [11]); 1.05 in the experiment on Leukozyten-Enzyme [3] (setting [12]); 3.7 with Leukozyten-Enzyme [3] (setting [13]); 1 in the experiment on Leukozyten-Enzyme [3] (setting [14]); 0.9 in the experiment with Leukozyten-Enzyme [3] (setting [15]).
Turning to `CCCCCCCCCO` [n-Nonanol], the “relative Spaltungsgeschwindigkeit” value in the experiment with Leukozyten-Enzyme [3] (setting [8]) was 3.0; with Leukozyten-Enzyme [3] (setting [14]), 0.6.
With `CCCCCCCCCCCCOS(=O)(=O)O` [SDS, Natriumdodecylsulfat], the “relative Spaltungsgeschwindigkeit” value in the experiment on Leukozyten-Enzyme [3] (Puffer Borat 0.1 M pH 8.4, no activator, detergent SDS alone 10 µg/Test) is listed as 2.8; in the experiment with Leukozyten-Enzyme [3] (Puffer Tris 0.1 M pH 8.4, no activator, detergent SDS alone 10 µg/Test), 0.8.
As for `CCCCCCCCCCCCCO` [n-Tridecanol], the “relative Spaltungsgeschwindigkeit” value with Leukozyten-Enzyme [2] (Detergens SDS 10 µg/Test) is 0.75.
As to `CCCCCCCCCCCCO` [n-Dodecanol], the “relative Spaltungsgeschwindigkeit” value is given as 0.55 in the experiment with Leukozyten-Enzyme [2] (Detergens SDS 10 µg/Test) and 9.0 with Leukozyten-Enzyme [3] (setting [8]).
